Assay results taken from PMC1192819, “Molecular cloning and characterization of a nuclear androgen receptor activated by 11-ketotestosterone” (Reproductive biology and endocrinology : RB&E, 2005).

Key:
[1] = tested on: spiggin mRNA in adult female stickleback kidney; assay: Induction of spiggin mRNA in stickleback kidney after steroid implants (slot blot); assay type: in vivo, three-spined stickleback (Gasterosteus aculeatus); conditions: females
Experimental: The fish were anesthetized with 0.1% (v/v) 2-phenoxyethanol (Sigma, St. Louis, MO, USA) and implanted intraperitoneally with Silclear silicone tubing (10-mm length, 0.6-mm inner diameter, 1.2-mm outer diameter) containing steroids dissolved in cocoa butter. […] KA was used as this steroid is converted into KT by the fish. Tubes containing cocoa butter alone were used as controls. Following implantation the fish were maintained in 50-liter aquaria containing brackish water (0.5% salinity) at 20°C under LD 16:8 h. At sampling fish were decapitated and the kidneys were excised, frozen using liquid nitrogen, and stored at -70°C. A number of experiments were performed as follows. Spiggin mRNA was measured in post-breeding females that were dissected 2 days following implantation of tubes. Cytosolic androgen-receptors were measured in females and in castrated males. Males were castrated under anesthesia as above, by making a 1.5 mm long incision into the abdominal cavity on each side and removing the testes using forceps. The females and the castrated males were implanted with control and high dose tubes and dissected after 6 days. AR mRNA was studied in females implanted for 12 h, 2 and 16 days (separate experiments) with control and high dose tubes and in males castrated as above and implanted for 10 days with control tubes and high doses of KA or E2.
Total RNA was extracted using Tri Reagent™ (Sigma). Aliquots of 10 μg of total RNA were mixed with denaturing solution (6 × SSC, 7% (v/v) formaldehyde) and transferred onto a nylon membrane (Amersham Pharmacia Biotech) using a Minifold II Slot Blot Apparatus (Schleicher and Schuell, Keene, NH, USA). Membranes were probed using either a randomly primed [α-^32P]-dCTP radiolabelled AR cDNA fragment (918 base pairs) that was isolated by reverse transcriptase-polymerase chain reaction and sequenced as above, or a randomly primed [α-^32P]-dCTP radiolabelled spiggin-α cDNA. Hybridizations were performed at 65°C overnight (6 × SCC, 0.1% (w/v) SDS, 100 μg ml^-1 tRNA, and 5 × Denhardt's solution). The membranes were washed for 2 × 30 minutes at 42°C and 65°C in 0.1 × SCC, 0.1% (w/v) SDS whereafter Hyperfilm™-MP film was exposed at -70°C. The films were visualized using Curix 60 Film Developer. Following AR and spiggin mRNA determination the membranes were stripped and analyzed for 18S rRNA using a cDNA fragment as internal control. Each AR or spiggin transcript was then semi-quantified using Quantity ONE 4.2.3 (Bio-Rad, Laboratories, Inc, Hercules, CA, USA) in relation to its internal 18S transcript.

[2] = target: T1, AR in stickleback kidney cytosolic extracts (Gasterosteus aculeatus, UniProt Q801Z1); assay: Ligand competition assay with 1 nM [3H]-DHT, kidney cytosolic extracts; assay type: binding, three-spined stickleback (Gasterosteus aculeatus); conditions: overnight 4°C, read-out: EC50 (competition for [3H]-DHT binding)
T1 sequence (Q801Z1 1-682): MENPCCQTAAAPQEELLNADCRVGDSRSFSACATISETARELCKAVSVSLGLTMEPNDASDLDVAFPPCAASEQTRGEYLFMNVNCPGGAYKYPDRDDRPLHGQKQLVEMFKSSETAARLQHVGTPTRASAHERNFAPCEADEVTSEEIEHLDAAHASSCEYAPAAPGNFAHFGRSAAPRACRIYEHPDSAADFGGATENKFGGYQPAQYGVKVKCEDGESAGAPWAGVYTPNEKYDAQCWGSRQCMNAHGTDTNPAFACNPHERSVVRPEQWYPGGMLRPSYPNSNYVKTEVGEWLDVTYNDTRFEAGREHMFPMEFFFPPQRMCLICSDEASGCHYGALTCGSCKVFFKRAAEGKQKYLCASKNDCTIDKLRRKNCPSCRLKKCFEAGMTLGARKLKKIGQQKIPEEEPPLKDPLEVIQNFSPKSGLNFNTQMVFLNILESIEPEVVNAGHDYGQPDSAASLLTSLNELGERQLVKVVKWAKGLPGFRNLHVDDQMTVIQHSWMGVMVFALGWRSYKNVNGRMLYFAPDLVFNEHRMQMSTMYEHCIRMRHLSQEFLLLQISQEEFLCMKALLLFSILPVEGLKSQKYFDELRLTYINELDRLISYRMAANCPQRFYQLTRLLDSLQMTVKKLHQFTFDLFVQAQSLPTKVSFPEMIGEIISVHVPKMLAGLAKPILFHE
Experimental: The steroid specificity of receptor binding was examined using a competitive binding assay. […] Following incubation, the reaction was terminated by addition of DCC and centrifugation and the specific binding in each tube was determined as described above.

[3] = tested on: rainbow trout ARα; conditions: COS-1 cell line; read-out: IC50 (ligand binding); cited from earlier work
[4] = target: T2, human AR (Homo sapiens, UniProt P10275); assay: ARE-luciferase trans-activation assay, human AR in transfected ZFL cells; assay type: cell-based; conditions: 10^-8 M of each steroid
T2 construct: expressed in transfected cells; host or cells: ZFL (zebrafish liver) cells
T2 sequence (P10275 1-920): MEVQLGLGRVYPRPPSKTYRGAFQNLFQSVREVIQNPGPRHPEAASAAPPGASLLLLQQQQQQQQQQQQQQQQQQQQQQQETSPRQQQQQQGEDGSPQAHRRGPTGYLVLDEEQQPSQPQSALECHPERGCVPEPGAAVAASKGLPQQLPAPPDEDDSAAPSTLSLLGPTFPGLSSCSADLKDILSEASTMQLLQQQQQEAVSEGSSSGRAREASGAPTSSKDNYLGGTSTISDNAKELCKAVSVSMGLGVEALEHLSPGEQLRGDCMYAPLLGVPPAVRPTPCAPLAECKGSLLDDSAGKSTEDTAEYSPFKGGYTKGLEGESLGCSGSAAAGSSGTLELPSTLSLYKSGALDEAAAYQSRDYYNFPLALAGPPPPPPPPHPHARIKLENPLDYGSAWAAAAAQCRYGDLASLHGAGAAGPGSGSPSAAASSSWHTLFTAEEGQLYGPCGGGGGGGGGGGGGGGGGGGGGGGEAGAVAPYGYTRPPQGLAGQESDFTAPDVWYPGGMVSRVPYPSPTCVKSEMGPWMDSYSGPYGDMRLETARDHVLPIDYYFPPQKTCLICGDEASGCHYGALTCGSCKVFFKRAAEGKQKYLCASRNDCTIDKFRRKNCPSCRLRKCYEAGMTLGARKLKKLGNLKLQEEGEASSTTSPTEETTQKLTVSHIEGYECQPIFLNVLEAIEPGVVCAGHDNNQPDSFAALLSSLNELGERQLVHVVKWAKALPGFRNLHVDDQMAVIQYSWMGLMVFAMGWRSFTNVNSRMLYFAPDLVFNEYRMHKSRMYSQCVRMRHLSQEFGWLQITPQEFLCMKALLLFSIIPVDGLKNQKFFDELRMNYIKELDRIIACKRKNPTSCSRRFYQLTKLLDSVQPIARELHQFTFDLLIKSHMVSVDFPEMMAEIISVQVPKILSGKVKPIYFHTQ
Experimental: Two liver epithelial cell lines were used to test receptor activity. HepG2 cells (ATCC, Manassas, VA) were maintained in DMEM supplemented with 10% FCS and non-essential amino acids. ZFL cells (ATCC) were maintained in 50% L-15 Leibovitz, 15% H-12 Ham and 35% DMEM supplemented with 10% FCS (Gibco, Paisley, Scotland, UK) and 50 ng ml-1 EGF (Sigma). Cells were cultured at 37°C (HepG2) or 28°C (ZFL) in 5% CO2. The transfection experiments were initiated by replacing the tissue culture medium with fresh phenol-free medium supplemented with charcoal stripped FCS and the cells were seeded on 24-well plates. Transfections were performed at 90–95% confluence using 1,5 μl Lipofectamine 2000 (Invitrogen, Carlsbad, CA, USA) and 0,6 μg DNA per well. […]
After 16 h the transfection medium was replaced with fresh phenol-free medium, supplemented with charcoal stripped FCS, containing different steroid hormones. The cells were exposed to the hormones for 40 h and luciferase levels were detected using the Dual Luciferase Assay kit (Promega) in a TD 20/20 Luminometer (Turner Designs, Sunnyvale, CA). […]

C[C@]12CC(=O)[C@H]3[C@@H](CCC4=CC(=O)CC[C@@]43C)[C@@H]1CC[C@@H]2O [KT, 11-ketotestosterone]
potency in spiggin induction relative to DHT ([1]; 1 μg implant dose): 23 times
effectiveness at increasing kidney spiggin mRNA levels relative to T ([1]; 25 μg implant dose): 50 times
EC50 [2]: 42.8 ± 3.42 nM
IC50 [3]: 8 nM
activation of human AR compared among androgens [4]: equally activated
